This is an account of results in patent publication US9238656B2, “Imidazo[4,5-b]pyridine derivatives as ALK and JAK modulators for the treatment of proliferative disorders” (priority 2012, dated 2016).

The target in data set [1] is baculovirus-expressed ALK (Homo sapiens, UniProt Q9UM73). The experiment in a line: ALK kinase inhibition, TRF/ELISA. The data set is classed as biochemical. The settings on record: read-out: ALK Potency. The gist of the method: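 Plates were coated with GST-PLC-γ substrate (10 μg/mL) and the reaction was started with 30 ng/mL ALK, running 15 min at 37° C. Phosphotyrosine was detected by time-resolved fluorescence with Eu-labeled PT66 antibody. IC50s came from variable-slope sigmoidal fits of percent inhibition versus log concentration.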

The target in data set [2] is baculovirus-expressed JAK2 kinase (Homo sapiens, UniProt O60674). In words: biochemical. The settings on record: 0.2 μM ATP; read-out: JAK2 Potency. The gist of the method: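 Time-resolved fluorescence kinase assay using 15 ng/mL baculovirus-expressed JAK2 on Neutravidin-captured biotinylated 15-mer peptide substrate, reaction 20 min at room temperature. IC50 from percent inhibition versus log concentration, sigmoidal variable-slope fit.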

Each structure is given as a SMILES string. Counter-ions that a name gives are not always drawn. Where only a bound is given, the exact number is not on record here.

Chain of baculovirus-expressed ALK (Q9UM73 19-1620): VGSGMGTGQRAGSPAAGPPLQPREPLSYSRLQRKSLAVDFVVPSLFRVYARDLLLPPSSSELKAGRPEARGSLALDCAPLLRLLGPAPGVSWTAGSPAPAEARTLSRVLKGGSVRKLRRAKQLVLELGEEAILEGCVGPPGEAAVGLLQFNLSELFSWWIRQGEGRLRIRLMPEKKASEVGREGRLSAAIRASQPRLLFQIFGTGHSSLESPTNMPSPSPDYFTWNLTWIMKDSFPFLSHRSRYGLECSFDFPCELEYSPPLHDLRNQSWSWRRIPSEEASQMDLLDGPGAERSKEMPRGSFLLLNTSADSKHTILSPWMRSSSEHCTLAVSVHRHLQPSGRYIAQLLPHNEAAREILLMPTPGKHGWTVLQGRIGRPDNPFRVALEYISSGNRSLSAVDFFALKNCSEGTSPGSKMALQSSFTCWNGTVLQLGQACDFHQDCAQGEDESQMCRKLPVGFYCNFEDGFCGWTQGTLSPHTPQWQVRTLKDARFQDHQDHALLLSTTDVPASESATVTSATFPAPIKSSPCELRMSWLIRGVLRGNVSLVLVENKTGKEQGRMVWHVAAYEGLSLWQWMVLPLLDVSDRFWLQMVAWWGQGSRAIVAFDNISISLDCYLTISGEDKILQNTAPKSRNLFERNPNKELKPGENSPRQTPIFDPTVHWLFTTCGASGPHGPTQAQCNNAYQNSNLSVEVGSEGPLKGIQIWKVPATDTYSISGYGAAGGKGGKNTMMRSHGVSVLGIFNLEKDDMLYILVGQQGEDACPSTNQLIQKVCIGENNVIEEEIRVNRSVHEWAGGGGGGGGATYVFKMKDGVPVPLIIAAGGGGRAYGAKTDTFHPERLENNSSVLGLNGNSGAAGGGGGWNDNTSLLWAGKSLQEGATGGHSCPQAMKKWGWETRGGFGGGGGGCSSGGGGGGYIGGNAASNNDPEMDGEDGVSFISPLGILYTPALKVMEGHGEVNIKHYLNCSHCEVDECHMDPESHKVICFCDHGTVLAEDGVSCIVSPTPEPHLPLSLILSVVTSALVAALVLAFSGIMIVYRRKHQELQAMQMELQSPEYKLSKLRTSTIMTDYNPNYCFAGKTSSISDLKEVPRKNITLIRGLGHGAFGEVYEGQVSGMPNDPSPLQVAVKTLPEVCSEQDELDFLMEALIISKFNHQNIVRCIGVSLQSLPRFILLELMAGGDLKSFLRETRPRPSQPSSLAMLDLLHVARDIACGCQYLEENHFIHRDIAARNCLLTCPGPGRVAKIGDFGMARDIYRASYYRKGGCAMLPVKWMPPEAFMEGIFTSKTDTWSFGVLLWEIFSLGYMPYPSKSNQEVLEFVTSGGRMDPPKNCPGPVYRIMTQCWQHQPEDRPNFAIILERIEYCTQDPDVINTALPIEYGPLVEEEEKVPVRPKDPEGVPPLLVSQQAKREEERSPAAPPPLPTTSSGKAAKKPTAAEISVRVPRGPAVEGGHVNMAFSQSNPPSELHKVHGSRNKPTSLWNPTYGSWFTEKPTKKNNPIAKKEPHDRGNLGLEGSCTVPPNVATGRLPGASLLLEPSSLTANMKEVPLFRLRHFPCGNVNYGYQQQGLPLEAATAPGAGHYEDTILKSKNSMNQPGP
Chain of baculovirus-expressed JAK2 kinase (O60674 whole entry): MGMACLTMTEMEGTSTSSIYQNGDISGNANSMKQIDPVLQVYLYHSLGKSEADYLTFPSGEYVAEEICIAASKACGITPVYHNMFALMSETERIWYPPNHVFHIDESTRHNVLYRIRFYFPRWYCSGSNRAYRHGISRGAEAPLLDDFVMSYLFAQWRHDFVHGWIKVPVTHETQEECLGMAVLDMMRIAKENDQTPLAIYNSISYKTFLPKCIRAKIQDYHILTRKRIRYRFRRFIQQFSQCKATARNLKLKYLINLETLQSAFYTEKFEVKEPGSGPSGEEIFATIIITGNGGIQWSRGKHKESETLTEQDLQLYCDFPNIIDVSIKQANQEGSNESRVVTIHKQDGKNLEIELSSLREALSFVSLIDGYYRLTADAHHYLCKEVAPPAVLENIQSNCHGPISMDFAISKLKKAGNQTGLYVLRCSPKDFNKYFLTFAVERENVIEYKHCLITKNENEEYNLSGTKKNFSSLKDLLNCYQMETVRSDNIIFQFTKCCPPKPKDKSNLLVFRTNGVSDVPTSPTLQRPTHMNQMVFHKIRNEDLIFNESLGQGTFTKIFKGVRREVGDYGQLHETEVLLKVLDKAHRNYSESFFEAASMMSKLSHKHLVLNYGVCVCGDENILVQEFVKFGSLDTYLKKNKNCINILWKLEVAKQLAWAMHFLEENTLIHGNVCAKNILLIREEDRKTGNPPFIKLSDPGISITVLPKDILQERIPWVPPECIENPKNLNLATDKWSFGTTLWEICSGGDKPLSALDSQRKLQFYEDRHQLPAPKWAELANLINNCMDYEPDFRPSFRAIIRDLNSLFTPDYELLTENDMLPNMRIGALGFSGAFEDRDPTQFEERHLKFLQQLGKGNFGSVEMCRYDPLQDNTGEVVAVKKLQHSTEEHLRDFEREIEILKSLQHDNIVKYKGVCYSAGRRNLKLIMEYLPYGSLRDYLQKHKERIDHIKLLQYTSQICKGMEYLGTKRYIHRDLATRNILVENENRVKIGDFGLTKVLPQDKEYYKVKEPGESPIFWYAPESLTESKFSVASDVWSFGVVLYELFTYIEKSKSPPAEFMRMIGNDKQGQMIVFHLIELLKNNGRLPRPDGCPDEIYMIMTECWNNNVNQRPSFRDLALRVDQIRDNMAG

As a reminder, the melting point is the temperature of the solid-liquid transition. Consider `COc1cc(N2CCC(N3CCN(C)CC3)CC2)ccc1-c1nc2c(N[C@H]3[C@@H](C(N)=O)[C@@H]4C=C[C@H]3C4)ccnc2[nH]1` [Compound XCIX, (1S,2S,3R,4R)-3-(2-{2-Methoxy-4-[4-(4-methyl-piperazin-1-yl)-piperidin-1-yl]-phenyl}-3H-imidazo[4,5-b]pyridin-7-ylamino)-bicyclo[2.2.1]hept-5-ene-2-carboxylic acid amide], for which the melting point lay within 185 to 195 °C. The IC50 in data set [1] was 100 to 1000 nM. Besides, in data set [2], the IC50 was over 10000 nM.

`CN1CCN(Cc2ccc(-c3nc4c(N[C@H]5[C@@H](C(N)=O)[C@@H]6C=C[C@H]5C6)c(Br)cnc4[nH]3)cc2)CC1` [Compound C] displayed a melting point of 208 to 209 °C. Further, in data set [1], the IC50 is under 100 nM. For the same molecule, the IC50 in data set [2] was under 100 nM.

In turn, `COc1cc(N(C)C)ccc1-c1nc2c(N[C@H]3[C@@H](C(N)=O)[C@@H]4C=C[C@H]3C4)ccnc2[nH]1` [Compound XCIII, (1S,2S,3R,4R)-3-[2-(4-Dimethylamino-2-methoxy-phenyl)-3H-imidazo[4,5-b]pyridin-7-ylamino]-bicyclo[2.2.1]hept-5-ene-2-carboxylic acid amide] returned a melting point of 185 to 190 °C. Moreover, the IC50 in data set [1] is over 10000 nM. The IC50 in data set [2] was over 10000 nM.

With `NC(=O)[C@@H]1[C@H](Nc2ccnc3[nH]c(-c4ccc(N5CCOCC5)cc4)nc23)[C@H]2C=C[C@@H]1C2` [Compound LXXXIX, (1S,2S,3R,4R)-3-[2-(4-Morpholin-4-yl-phenyl)-3H-imidazo[4,5-b]pyridin-7-ylamino]-bicyclo[2.2.1]hept-5-ene-2-carboxylic acid amide], the melting point lay within 240 to 244 °C. Also, in data set [1], the IC50 is over 10000 nM. For the same molecule, the IC50 in data set [2] was 1000 to 10000 nM.

`NC(=O)[C@@H]1[C@H](Nc2c(Br)cnc3[nH]c(-c4ccoc4)nc23)[C@H]2C=C[C@@H]1C2` [Compound CVIII, (1S,2S,3R,4R)-3-(6-Bromo-2-furan-3-yl-3H-imidazo[4,5-b]pyridin-7-ylamino)-bicyclo[2.2.1]hept-5-ene-2-carboxylic acid amide]: the melting point is 231 to 232 °C. Besides, in data set [1], the IC50 lay in the range of 100 to 1000 nM. For the same molecule, the IC50 in data set [2] was under 100 nM.

As to `NC(=O)[C@@H]1[C@H](Nc2ccnc3[nH]c(-c4ccc(CN5CCOCC5)cc4)nc23)[C@H]2C=C[C@@H]1C2` [Compound XC, (1S,2S,3R,4R)-3-[2-(4-Morpholin-4-ylmethyl-phenyl)-3H-imidazo[4,5-b]pyridin-7-ylamino]-bicyclo[2.2.1]hept-5-ene-2-carboxylic acid amide], the melting point fell in the range of 240 to 244 °C. Also, the IC50 in data set [1] is over 10000 nM. Moreover, the IC50 in data set [2] was in the range of 1000 to 10000 nM.

In turn, `COc1cc(N(C)C)ccc1-c1nc2c(N[C@H]3[C@@H](C(N)=O)[C@@H]4C=C[C@H]3C4)c(Br)cnc2[nH]1` [Compound LXXXIV, (1S,2S,3R,4R)-3-[6-Bromo-2-(4-dimethylamino-2-methoxy-phenyl)-3H-imidazo[4,5-b]pyridin-7-ylamino]-bicyclo[2.2.1]hept-5-ene-2-carboxylic acid amide] had a melting point of 218 to 220 °C. The IC50 in data set [1] was under 100 nM. Also, the IC50 in data set [2] was under 100 nM.

`CN1CCN(c2ccc(-c3nc4c(N[C@H]5[C@@H](C(N)=O)[C@@H]6C=C[C@H]5C6)c(Br)cnc4[nH]3)cc2)CC1` [Compound LXXVIII, (1S,2S,3R,4R)-3-{6-Bromo-2-[4-(4-methyl-piperazin-1-yl)-phenyl]-3H-imidazo[4,5-b]pyridin-7-ylamino}-bicyclo[2.2.1]hept-5-ene-2-carboxylic acid amide] registered a melting point of 215 to 218 °C. For the same molecule, in data set [2], the IC50 was under 100 nM.

As for `NC(=O)[C@@H]1[C@H](Nc2c(Br)cnc3[nH]c(-c4ccc(CN5CCOCC5)cc4)nc23)[C@H]2C=C[C@@H]1C2` (as salt: sodium) [Compound LXXX, (1S,2S,3R,4R)-3-[6-Bromo-2-(4-morpholin-4-ylmethyl-phenyl)-3H-imidazo[4,5-b]pyridin-7-ylamino]-bicyclo[2.2.1]hept-5-ene-2-carboxylic acid amide], the melting point was in the range of 217 to 219 °C.

With `NC(=O)[C@@H]1[C@H](Nc2c(Br)cnc3[nH]c(-c4ccc(N5CCOCC5)cc4)nc23)[C@H]2C=C[C@@H]1C2` [Compound LXXIX, (1S,2S,3R,4R)-3-[6-Bromo-2-(4-morpholin-4-yl-phenyl)-3H-imidazo[4,5-b]pyridin-7-ylamino]-bicyclo[2.2.1]hept-5-ene-2-carboxylic acid amide], the melting point fell in the range of 283 to 284 °C. Besides, the IC50 in data set [2] was under 100 nM.

With `Cc1cc(N2CCOCC2)ccc1-c1nc2c(N[C@H]3[C@@H](C(N)=O)[C@@H]4C=C[C@H]3C4)c(Br)cnc2[nH]1` [Compound CXXX, (1S,2S,3R,4R)-3-[6-Bromo-2-(2-methyl-4-morpholin-4-yl-phenyl)-3H-imidazo[4,5-b]pyridin-7-ylamino]-bicyclo[2.2.1]hept-5-ene-2-carboxylic acid amide], the IC50 in data set [1] and in data set [2] was under 100 nM in each case.

As to `C[C@@H](O)CN1CCC(n2cc(-c3nc4c(N[C@H]5[C@@H](C(N)=O)[C@@H]6C=C[C@H]5C6)c(Cl)cnc4[nH]3)cn2)CC1` [Compound LVIII, (1S,2S,3R,4R)-3-(6-Chloro-2-{1-[1-((R)-2-hydroxypropyl)-piperidin-4-yl]-1H-pyrazol-4-yl}-3H-imidazo[4,5-b]pyridine-7-ylamino)-bicyclo[2.2.1]hept-5-ene-2-carboxylic acid amide], the IC50 in data set [1] and in data set [2] was under 100 nM throughout.

`COc1cc(N2CCOCC2)ccc1-c1nc2c(N[C@@H]3CCCC[C@H]3NS(C)(=O)=O)c(Cl)cnc2[nH]1` [Compound LXXII, N-{(1R,2R)-2-[6-Chloro-2-(2-methoxy-4-morpholin-4-yl-phenyl)-3H-imidazo[4,5-b]pyridine-7-ylamino]-cyclohexyl}-methanesulfonamide]: the IC50 in data set [1] is under 100 nM; in data set [2], over 10000 nM.

For `NC(=O)[C@@H]1[C@H](Nc2c(Cl)cnc3[nH]c(-c4ccc(OCC(=O)O)cc4)nc23)[C@H]2C=C[C@@H]1C2` [Compound CCXLVI, 2-(4-(7-((1R,2R,3S,4S)-3-carbamoylbicyclo[2.2.1]hept-5-en-2-ylamino)-6-chloro-3H-imidazo[4,5-b]pyridin-2-yl)phenoxy)acetic acid], the figures for the IC50 in data set [1] and in data set [2] were 100 to 1000 nM and under 100 nM, respectively.

Turning to `CC12CCC(Nc3c(Cl)cnc4[nH]c(-c5ccc(N6CCOCC6)cc5)nc34)(CC1=O)C2(C)C` (centres unmarked) [Compound CXCVIII, 4-(6-chloro-2-(4-morpholinophenyl)-3H-imidazo[4,5-b]pyridin-7-ylamino)-1,7,7-trimethylbicyclo[2.2.1]heptan-2-one], the IC50 in data set [1] was over 10000 nM; in data set [2] it was under 100 nM.

Consider `COc1cc(N2CCC(N3CCN(C)CC3)CC2)ccc1-c1nc2c(N[C@@H]3CCCC[C@H]3NS(C)(=O)=O)c(Cl)cnc2[nH]1` [CCLIII], for which the IC50 in data set [1] is under 100 nM; in data set [2], 1000 to 10000 nM.

For `NC(=O)[C@@H]1[C@H](Nc2c(Cl)cnc3[nH]c(-c4cccc(C(=O)O)c4)nc23)[C@H]2C=C[C@@H]1C2` [Compound CCXVII, 3-(7-((1R,2R,3S,4S)-3-carbamoylbicyclo[2.2.1]hept-5-en-2-ylamino)-6-chloro-3H-imidazo[4,5-b]pyridin-2-yl)benzoic acid], the IC50 in data set [1] is 1000 to 10000 nM; in data set [2], under 100 nM.

Take `CC(=O)N1CCN(Cc2ccc(-c3nc4c(N[C@H]5[C@@H](C(N)=O)[C@@H]6C=C[C@H]5C6)c(Br)cnc4[nH]3)cc2)CC1` [Compound CLVI, (1S,2S,3R,4R)-3-{2-[4-(4-Acetyl-piperazin-1-ylmethyl)-phenyl]-6-bromo-3H-imidazo[4,5-b]pyridin-7-ylamino}-bicyclo[2.2.1]hept-5-ene-2-carboxylic acid amide]: the IC50 in data set [1] and in data set [2] was under 100 nM throughout.

Regarding `CC(=O)N1CCN(Cc2ccc(-c3nc4c(N[C@H]5[C@@H](C(N)=O)[C@@H]6C=C[C@H]5C6)c(Cl)cnc4[nH]3)cc2)CC1` [Compound CLVII, (1S,2S,3R,4R)-3-{2-[4-(4-Acetyl-piperazin-1-ylmethyl)-phenyl]-6-chloro-3H-imidazo[4,5-b]pyridin-7-ylamino}-bicyclo[2.2.1]hept-5-ene-2-carboxylic acid amide], the IC50 in data set [1] and in data set [2] was under 100 nM throughout.

`CN1CCN(C(=O)COc2cccc(-c3nc4c(N[C@H]5[C@@H](C(N)=O)[C@@H]6C=C[C@H]5C6)c(Cl)cnc4[nH]3)c2)CC1` [Compound CCXLIII, (1S,2S,3R,4R)-3-(6-chloro-2-(3-(2-(4-methylpiperazin-1-yl)-2-oxoethoxy)phenyl)-3H-imidazo[4,5-b]pyridine-7-ylamino)pyridin[2.2.1]hept-5-ene-2-carboxamide]: the IC50 in data set [1] and in data set [2] was under 100 nM in each case.

Consider `COc1cc(C(=O)N2CCOCC2)ccc1-c1nc2c(N[C@H]3[C@@H](C(N)=O)[C@@H]4C=C[C@H]3C4)c(Cl)cnc2[nH]1` [Compound LXIII, (1S,2S,3R,4R)-3-{6-Chloro-2-[2-methoxy-4-(morpholine-4-carbonyl)-phenyl]-3H-imidazo[4,5-b]pyridine-7-ylamino}-bicyclo[2.2.1]hept-5-ene-2-carboxylic acid amide], for which the IC50 in data set [1] and in data set [2] was under 100 nM each time.

With `NC(=O)[C@@H]1[C@H](Nc2c(Cl)cnc3[nH]c(Nc4ccccc4)nc23)[C@H]2C=C[C@@H]1C2` [Compound LXVII, (1S,2S,3R,4R)-3-(6-Chloro-2-phenylamino-3H-imidazo[4,5-b]pyridine-7-ylamino)-bicyclo[2.2.1]hept-5-ene-2-carboxylic acid amide], the IC50 in data set [1] is 100 to 1000 nM; in data set [2] it was under 100 nM.
